In patent US7622594B2, “Glucocortioid mimetics, methods of making them, pharmaceutical compositions, and uses thereof” (Boehringer Ingelheim Pharmaceuticals, Inc., priority 2005, dated 2009):

tested on: IL-6 production in human foreskin fibroblast cells; assay: Inhibition of IL-6 production in fibroblasts (cell assay for transrepression); format: cell-based; settings: IL-1 stimulated human foreskin fibroblasts
Method: Human foreskin fibroblast cells produce IL-6 in response to stimulation by proinflammatory cytokine IL-1.
Human foreskin fibroblast cells (ATCC Cat. No. CRL-2429) are plated on 96 well plates at 5,000 cells per well the day before use, in Iscove's Modified Dulbecco's Media (GibcoBRL Life Technologies Cat. No. 12440-053) supplemented with 10% charcoal filtered FBS (Clonetech Cat. No. SH30068) and Gentamycin (GibcoBRL Life Technologies Cat. No. 15710-064). On the next day, media in the wells is replaced with fresh media. Cells are treated with IL-1 (rhIL-1α, R&D Systems Cat. No. 200-LA) to a final concentration of 1 ng/mL, and with test compounds to final concentrations of 10^−5 M to 10^−8 M, in a total volume of 200 μL per well. Samples are done in duplicates. […] Positive control wells receive IL-1 only and represent maximum (or 100%) amount of IL-6 production. Plates are incubated at 37° C. overnight (15 to 18 hours), and supernatants are harvested at the end of incubation. IL-6 levels in the supernatants are determined by the ELISA kits for IL-6 (MedSystems Diagnostics GmbH, Vienna, Austria, Cat. No. BMS213TEN) according to manufacture's instructions. The extent of inhibition of IL-6 by test compounds is expressed in percentage relative to positive controls. IC50 values of test compounds are derived by non-linear curve fitting.

Compound | agonistic activity by inhibiting IL-6 production in Fibroblasts
Cc1ccc(C(O)(c2ccc3c(cnn3-c3ccc(F)cc3)c2)C(F)(F)F)c2ccccc12 (stereo not shown) [2,2,2-Trifluoro-1-[1-(4-fluorophenyl)-1H-indazol-5-yl]-1-(4-methylnaphthalen-1-yl)ethanol] | agonistic activity
OC(c1ccc2c(cnn2-c2ccccc2)c1)(c1cccc2ccccc12)C(F)(F)F (stereo not shown) [2,2,2-Trifluoro-1-naphthalen-1-yl-1-(1-phenyl-1H-indazol-5-yl)ethanol] | agonistic activity
OC(c1ccc2c(cnn2-c2ccccc2)c1)(c1ccc(F)c2ccccc12)C(F)(F)F (stereo not shown) [2,2,2-Trifluoro-1-(4-fluoronaphthalen-1-yl)-1-(1-phenyl-1H-indazol-5-yl)ethanol] | agonistic activity
OC(c1ccc2c(cnn2-c2ccc(F)cc2)c1)(c1ccc(F)c2ccccc12)C(F)(F)F (stereo not shown) [2,2,2-Trifluoro-1-(4-fluoronaphthalen-1-yl)-1-[1-(4-fluorophenyl)-1H-indazol-5-yl]ethanol] | agonistic activity
OC(c1ccc2c(cnn2-c2ccc(F)cc2)c1)(c1cccc2ccccc12)C(F)(F)F (stereo not shown) [2,2,2-Trifluoro-1-[1-(4-fluorophenyl)-1H-indazol-5-yl]-1-naphthalen-1-ylethanol] | agonistic activity
OC(c1ccc(F)c(Cl)c1)(c1ccc2c(cnn2-c2ccccc2)c1)C(F)(F)F (stereo not shown) [1-(3-Chloro-4-fluorophenyl)-2,2,2-trifluoro-1-(1-phenyl-1H-indazol-5-yl)ethanol] | agonistic activity
OC(c1ccc2c(cnn2-c2ccc(F)cc2)c1)(c1csc2ccccc12)C(F)(F)F (stereo not shown) [1-Benzo[b]thiophen-3-yl-2,2,2-trifluoro-1-[1-(4-fluorophenyl)-1H-indazol-5-yl]ethanol] | agonistic activity
OC(c1ccc2c(cnn2-c2ccccc2)c1)(c1ccnc2ccccc12)C(F)(F)F (stereo not shown) [2,2,2-Trifluoro-1-(1-phenyl-1H-indazol-5-yl)-1-quinolin-4-ylethanol] | agonistic activity
OC(c1ccc(F)c(Cl)c1)(c1ccc2c(cnn2-c2ccc(F)cc2)c1)C(F)(F)F (stereo not shown) [1-(3-Chloro-4-fluorophenyl)-2,2,2-trifluoro-1-[1-(4-fluorophenyl)-1H-indazol-5-yl]ethanol] | agonistic activity
OC(c1ccc2c(cnn2-c2ccccc2)c1)(c1csc2ccccc12)C(F)(F)F (stereo not shown) [1-Benzo[b]thiophen-3-yl-2,2,2-trifluoro-1-(1-phenyl-1H-indazol-5-yl)ethanol] | agonistic activity
